Laboratory results reported in patent publication US20100021427A1, “Use of Antiviral Peptides For Treatment of Infections Caused by Drug-Resistant HIV” (Tianjin FusoGen Pharmaceuticals, Inc., priority 2008, published 2010).

How the values were obtained:
[1] = tested on: HIV-1IIIB; assay: HIV-1IIIB-mediated infection of MT-2 cells; assay type: cell-based
Protocol: (§1) A dye transfer assay was used for detection of HIV-1 mediated cell-cell fusion as previously described in (Jiang, S., et al. Antimicrob.Agents Chemother. 2004; 48: 4349-4359. In brief, H9/HIV-1IIIB-infected cells were labeled with a fluorescent reagent, Calcein-AM (Molecular Probes, Inc., Eugene, OR) and then incubated with MT-2 cells (ratio =1:5) in 96-well plates at 37° C. for 2 h in the presence or absence of peptides. The fused and unfused calcein-labeled HIV-1-infected cells were counted under an inverted fluorescence microscope (Zeiss, Germany) with an eyepiece micrometer disc. The inhibition percent of cell-cell fusion and the IC50 values were calculated as described. […] The inhibitory activity of FS-01 on HIV-1-mediated infection was conducted too.
Two T20-sensitive and five T20-resistant strains with well defined genetic mutations conferring the resistance were used in this experiment (Rimsky, L. T., et al. J.VIROL. 1998; 72: 986-993). Briefly, 1×10^4 MT-2 cells were infected with HIV-1 isolates at 100 TCID50 (50% tissue culture infective dose) in 200 μl RPMI 1640 medium containing 10% FBS in the presence or absence of FS-01 at graded concentrations overnight. Then the culture supernatants were removed and fresh media without FS-01 were added. […]

[2] = tested on: 92US657 (clade B, R5); assay: Primary HIV-1 isolate infection of PBMC, p24 ELISA; assay type: cell-based; settings: p24 production, 7 days post infection
Protocol: (§2) The inhibitory activity of FS-01 against primary HIV-1 isolates was determined as previously described in (Jiang, S., et al. ANTIMICROB. AGENTS CHEMOTHER. 2004; 48: 4349-4359. The peripheral blood mononuclear cells (PBMC) were isolated from the blood of healthy donors using a standard density gradient (Histopaque-1077, Sigma) centrifugation. The cells were plated in 75-cm plastic flasks and incubated at 37° C. for 2 h. The nonadherent cells were collected and resuspended at 5×10^5/mL in RPMI 1640 medium containing 10% FBS, 5 μg of phytohemagglutinin (PHA)/mL, and 100 U of interleukin-2/mL, followed by incubation at 37° C. for 3 days. The PHA-stimulated cells were infected with the corresponding primary HIV-1 isolates at a multiplicity of infection (MOI) of 0.01 in the absence or presence of FS-01 at graded concentrations. Culture media were changed every 3 days. The supernatants were collected 7 days post infection and tested for p24 antigen by ELISA. The percent inhibition of p24 production and IC50/IC90 values were calculated.

[3] = tested on: 94UG103 (clade A, X4R5); assay: Primary HIV-1 isolate infection of PBMC, p24 ELISA; assay type: cell-based; settings: p24 production, 7 days post infection
Protocol: as §2

[4] = tested on: 92TH009 (clade E, R5); assay: Primary HIV-1 isolate infection of PBMC, p24 ELISA; assay type: cell-based; settings: p24 production, 7 days post infection
Protocol: as §2

[5] = tested on: 93IN101 (clade C, R5); assay: Primary HIV-1 isolate infection of PBMC, p24 ELISA; assay type: cell-based; settings: p24 production, 7 days post infection
Protocol: as §2

[6] = tested on: 93BR020 (clade F, X4R5); assay: Primary HIV-1 isolate infection of PBMC, p24 ELISA; assay type: cell-based; settings: p24 production, 7 days post infection
Protocol: as §2

[7] = tested on: 92UG001 (clade D, X4R5); assay: Primary HIV-1 isolate infection of PBMC, p24 ELISA; assay type: cell-based; settings: p24 production, 7 days post infection
Protocol: as §2

[8] = tested on: POPC LUVs; assay: Tryptophan fluorescence spectroscopy, peptide-lipid interaction; assay type: binding; settings: peptide 10 μM, POPC LUVs 2 mM, excitation 295 nm
Protocol: (§3) So, the POPC LUV liposome system was employing to investigate the binding activity of FS-01 to lipid membranes. Large unilamellar vesicles (LUVs) of 1-palmitoyl-2-oleoyl-sn-glycero-3-phosphocholine (POPC) liposome were prepared as previously described (Liu, S., et al. J.BIOL.CHEM. 2007; 282: 9612-9620). Briefly, 20 mg of POPC stock solution was dried under a stream of nitrogen and stored in vacuum overnight to completely remove trace amounts of organic solvent. The dried lipid film was suspended by vortexing in 2 mL PBS buffer. The resultant multilamellar vesicle suspension was freeze-thawed for 5 cycles and then successively extruded through two stacked polycarbonate filters (0.1 μm) 13 times using an Avanti miniextruder.
Spectra were baseline-corrected by subtracting blank spectra of the corresponding solutions without peptide.

[9] = target: T1, N36 (Human immunodeficiency virus type 1 group M subtype B, UniProt P04578); assay: Native polyacrylamide gel electrophoresis (N-PAGE), 6-HB formation; assay type: binding, HIV; settings: 40 μM, 37° C. 30 min
T1 construct: protease-resistant N- and C-peptides from gp41
Protocol: Native polyacrylamide gel electrophoresis (N-PAGE) was carried out to determine the 6-HB formation between the N- and C-peptides using the described previously (Liu, S., et al. PEPTIDES 2003, 24:1303-1313). […] The mixture was loaded onto a 10×1.0-cm precast 18% Tris-glycine gels (Invitrogen, Carlsbad, Calif.) at 25 μL/per well with an equal volume of Tris-glycine native sample buffer (Invitrogen). Gel electrophoresis was carried out with 125 V constant voltage at room temperature for 2 h. The gel was then stained with Coomassie blue and imaged with a FluorChem 8800 Imaging System (Alpha Innotech Corp., San Leandro, Calif.).

[10] = tested on: HIV-1IIIB-mediated cell-cell fusion (H9/HIV-1IIIB-infected cells with MT-2 cells); assay: Dye transfer assay of HIV-1 mediated cell-cell fusion; assay type: cell-based
Protocol: as §1

[11] = tested on: POPC LUVs; assay: Isothermal titration calorimetry (ITC), peptide-lipid binding; settings: LUVs injected into peptide solution
Protocol: as §3
Solutions were degassed under vacuum prior to use. LUVs of POPC were injected into the chamber containing a peptide solution or buffer only (as a control). The heats generated in control experiments by injecting lipid vesicles into buffer without a peptide were subtracted from the heats produced in the corresponding peptide-lipid binding experiments. Data acquisition and analyses were performed using MicroCal's Origin software (Version 7.0).

[12] = tested on: NL4-3 (N42S); assay type: cell-based, HIV-1; settings: T20-sensitive (S) virus, MT-2 cells, p24, fourth day; read-out: IC50 (Mean ± SD)
Protocol: (§4) Two T20-sensitive and five T20-resistant strains with well defined genetic mutations conferring the resistance were used in this experiment (Rimsky, L. T., et al. J.VIROL. 1998; 72: 986-993). Briefly, 1×10^4 MT-2 cells were infected with HIV-1 isolates at 100 TCID50 (50% tissue culture infective dose) in 200 μl RPMI 1640 medium containing 10% FBS in the presence or absence of FS-01 at graded concentrations overnight. Then the culture supernatants were removed and fresh media without FS-01 were added. On the fourth day post-infection, 100 μl of culture supernatants were collected from each well, mixed with equal volumes of 5% Triton X-100 and assayed for p24 antigen by ELISA.

[13] = tested on: NL4-3 (parental); assay type: cell-based, HIV-1; settings: T20-sensitive (S) virus, MT-2 cells, p24, fourth day; read-out: IC50 (Mean ± SD)
Protocol: as §4

[14] = tested on: NL4-3 (V38A/N42D); assay type: cell-based, HIV-1; settings: T20-resistant (R) virus, MT-2 cells, p24, fourth day; read-out: IC50 (Mean ± SD)
Protocol: as §4

[15] = tested on: NL4-3 (V38A); assay type: cell-based, HIV-1; settings: T20-resistant (R) virus, MT-2 cells, p24, fourth day; read-out: IC50 (Mean ± SD)
Protocol: as §4

[16] = tested on: NL4-3 (V38A/N42T); assay type: cell-based, HIV-1; settings: T20-resistant (R) virus, MT-2 cells, p24, fourth day; read-out: IC50 (Mean ± SD)
Protocol: as §4

[17] = tested on: NL4-3 (V38E/N42S); assay type: cell-based, HIV-1; settings: T20-resistant (R) virus, MT-2 cells, p24, fourth day; read-out: IC50 (Mean ± SD)
Protocol: as §4

[18] = tested on: NL4-3 (N42T/N43K); assay type: cell-based, HIV-1; settings: T20-resistant (R) virus, MT-2 cells, p24, fourth day; read-out: IC50 (Mean ± SD)
Protocol: as §4

[19] = target: T1, N36; assay: Circular dichroism (CD) spectroscopy and thermal denaturation of peptide/N36 mixtures; assay type: binding, HIV
Protocol: Circular dichroism (CD) spectroscopy was performed following the method previously described in He, Y., et al. J.BIOL.CHEM. 2007; 282: 25631-25639. […] The final peptide concentration was 10 μM in 50 mM sodium phosphate and 150 mM NaCl, pH 7.2. The N-, C-peptides as well as FS-01 by itself was also tested. CD spectra of these individual peptides and peptide mixtures were acquired on Jasco spectropolarimeter (Model J-715, Jasco Inc., Japan) at room temperature using a 5.0-nm band with, 0.1-nm resolution, 0.1-cm path length, 4.0-s response time, and a 50-nm/min scanning speed. The spectra were corrected by subtraction of a blank corresponding to the solvent. The a-helical content was calculated from the CD signal by dividing the mean residue ellipticity at 222 nm by the value expected for 100% helix formation (−33,000 degrees cm^2 dmol^−1) according to existing literature (Shu, W., et al. BIOCHEMISTRY 2000; 39: 1634-1642; Chen, Y. H., et al. BIOCHEMISTRY 1974; 13: 3350-3359). Thermal denaturation was monitored at 222 nm by applying a thennal gradient of 2° C./min in the range of 4-98° C. To determine the reversibility, the peptide mixtures were then cooled to 4° C. and kept in the CD chamber at 4° C. for 30 min, followed by monitoring of thermal denaturation as described above. The melting curve was smoothened, and the midpoint of the thermal unfolding transition (Tm) values was calculated using Jasco software utilities.

[20] = target: T2, 6-HB between C34-biotin and N36 (Human immunodeficiency virus type 1 group M subtype B, UniProt P04578); assay: ELISA (mAb NC-1) of inhibition of 6-helix bundle formation; assay type: biochemical, HIV
T2 construct: protease-resistant N- and C-peptides from gp41
Protocol: A 96-well polystyrene plate (Costar, Corning Inc., Corning, N.Y.) was coated with a 6-HB-specific monoclonal antibody NC-1 IgG (4 μg/mL in 0.1 M Tris, pH 8.8). […] The mixture was then added to the NC-1-coated plate, followed by incubation at room temperature for 30 min and washing with a washing buffer (PBS containing 0.1 % Tween 20) three times. Then streptavidin-labeled horseradish peroxidase (Invitrogen) and the substrate 3,3′,5,5′-tetramethylbenzidine (Sigma) were added sequentially. Absorbance at 450 nm (A450) was measured using an ELISA reader (Ultra 384, Tecan, Research Triangle Park, N.C.). The percent inhibition by the peptides and the IC50 values were calculated as previously described (Jiang, S. B., et al J.EXP.MED. 1991; 174: 1557-1563).

T1 sequence (P04578 546-581): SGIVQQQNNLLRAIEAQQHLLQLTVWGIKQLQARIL
T2 sequence (P04578 546-581): as above

“Ac-SWETWEREIENYTRQIYRILEESQEQQDRNERDLLE-NH2 [FS-01]” was tested, and the “inhibition of HIV-1IIIB-mediated infection of MT-2 cells, compared with T20” value [1] was “more potent”, the IC50 ([2]; read-out: IC50 (Mean ± SD)) was 27.8 ± 8.66 nM and the IC90 ([2]; read-out: IC90 (Mean ± SD)) was 212 ± 84 nM. The IC50 ([3]; read-out: IC50 (Mean ± SD)) was 3.94 ± 1.29 nM, the IC90 ([3]; read-out: IC90 (Mean ± SD)) was 7.43 ± 2.16 nM and the IC50 ([4]; read-out: IC50 (Mean ± SD)) was 210 ± 9.91 nM. The IC90 ([4]; read-out: IC90 (Mean ± SD)) was 619 ± 39 nM, the IC50 ([5]; read-out: IC50 (Mean ± SD)) was 34.3 ± 3.21 nM and the IC90 ([5]; read-out: IC90 (Mean ± SD)) was 90.6 ± 6.5 nM. It also gave an IC50 ([6]; read-out: IC50 (Mean ± SD)) of 12.5 ± 6.76 nM, an IC90 ([6]; read-out: IC90 (Mean ± SD)) of 71.6 ± 28.5 nM and an IC50 ([7]; read-out: IC50 (Mean ± SD)) of 11.9 ± 3.01 nM. The IC90 ([7]; read-out: IC90 (Mean ± SD)) was 35.7 ± 6.59 nM, the “shift of tryptophan fluorescence spectra in POPC LUVs compared to PBS” value [8] was “did not show remarkable fluorescence spectra shift” and the “6-HB formation with N36 (up-shift of peptide band)” value [9] was “able to form 6-HB with N36”. For the same substance, the “fold more active than T20 in inhibiting membrane fusion” value [10] was “about 6 fold”, the IC50 ([10]; 37° C. for 2 h, read-out: IC50, inhibition of cell-cell fusion) was 3.6 nM and the “binding constant to POPC LUVs” value [11] was “too weak to calculate the binding constant”. The IC50 [12] was 2.68 ± 0.87 nM, the IC50 [13] was 12.6 ± 1.18 nM and the IC50 [14] was 47.8 ± 4.7 nM. For the same substance, the IC50 [15] was 3.44 ± 0.23 nM, the IC50 [16] was 30.4 ± 4.36 nM and the IC50 [17] was 43.5 ± 3.36 nM. For the same substance, the IC50 [18] was 37.8 ± 15.6 nM, the “higher melting temperature of FS-01/N36 complex compared to C34/N36 complex” value [19] was 10 °C and the “helical content in the presence of N36” value ([19]; CD at 222 nm, equal molar with N36, 10 μM, pH 7.2) was 93%. The “formation of α-helical complexes with N36 (CD minimum at 208 and 222 nm)” value ([19]; equal molar with N36, 10 μM) was “formation of secondary α-helical structure”, the “melting temperature (Tm) of complex with N36” value ([19]; thermal denaturation monitored at 222 nm) was “about 72 °C” and the IC50 [20] was 120 nM.
